Square brackets hold non-standard residues; d marks the D form. Peptide text beside a SMILES is read from it. hArg = N=C(N)NCCCC[C@H](N)C(=O)O; Nle = CCCC[C@H](N)C(=O)O; Aib = CC(C)(N)C(=O)O
Key:
[1] = molecular target: T1, human PTHR, G protein-uncoupled conformation (R^0) (Homo sapiens, UniProt Q03431); test: Competition binding to R0 conformation of hPTHR (COS-7 membranes, GTPγS, 125I-PTH(1-34) tracer)
T1 construct: expressed in transfected cells; host or cells: COS-7, transient (Fugene-6)
T1 sequence (Q03431 27-593): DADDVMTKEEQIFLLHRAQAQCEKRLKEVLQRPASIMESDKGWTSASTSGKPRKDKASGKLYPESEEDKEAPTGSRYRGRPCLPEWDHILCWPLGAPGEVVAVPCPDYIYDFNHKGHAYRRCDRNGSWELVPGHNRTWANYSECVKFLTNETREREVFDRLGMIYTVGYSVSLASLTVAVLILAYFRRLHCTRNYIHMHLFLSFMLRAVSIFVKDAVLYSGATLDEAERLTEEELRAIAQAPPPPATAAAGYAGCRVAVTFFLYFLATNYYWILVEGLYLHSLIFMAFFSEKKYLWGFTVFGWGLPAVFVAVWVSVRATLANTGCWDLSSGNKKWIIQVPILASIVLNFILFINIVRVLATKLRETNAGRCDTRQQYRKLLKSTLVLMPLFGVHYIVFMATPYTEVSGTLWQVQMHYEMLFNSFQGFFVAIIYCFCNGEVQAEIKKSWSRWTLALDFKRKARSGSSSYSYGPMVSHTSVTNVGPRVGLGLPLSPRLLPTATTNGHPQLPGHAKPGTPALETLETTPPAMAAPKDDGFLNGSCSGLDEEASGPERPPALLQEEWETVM
Procedure, shortened: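 Bound versus free radioligand was separated by vacuum filtration after 90 min incubation of COS-7 hPTHR membranes (20-100 μg/mL) with tracer and competing peptides. Non-specific binding came from a saturating unlabeled analog.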

[2] = molecular target: T2, human PTHR, G protein-coupled conformation (RG) (Homo sapiens, UniProt Q03431); test: Competition binding to RG conformation of hPTHR (COS-7 membranes, GαsND, 125I-[Aib1,3,M]PTH(1-15) tracer); conditions: Table 5; read-out: IC50 RG, ^125I-PTH(1-15) + GsND
T2 construct: expressed in transfected cells; host or cells: COS-7, transient (Fugene-6); membranes
T2 sequence (Q03431 27-593): T1 sequence (Q03431 27-593)

hPTHR = molecular target: T3, hPTHR (Homo sapiens, UniProt Q03431); test: Delayed cAMP response after ligand wash-out in HKRK-B64 cells; assay type: cell-based; parameters: expressed in transfected cells; conditions: HKRK-B64, at two hours (so in the source); read-out: cAMP response after wash-out, % of maximum response
T3 sequence (Q03431 27-593): T1 sequence (Q03431 27-593)
Description: The cells were pre-treated for 10 minutes with either buffer alone (basal) or buffer containing ligand (100 nM); at t=0, the cells were washed, incubated in buffer for the times indicated (wash-out phase), treated with 3-isobutyl-1-methylxanthine (IBMX) for five minutes, and then assessed for intracellular cAMP. […] The cAMP level in cells treated with IBMX in the absence of ligand was 2.0±0.3 pmole/well. Data are means (±s.e.m.) of three experiments, each performed in duplicate. […] Analogs were similarly assessed in HKRK-B64 cells (90,000 hPTHRs/cell) at a single time-point, 60 minutes after ligand wash-out (FIG. 5B). For each peptide, the data are expressed as a percentile of the maximum cAMP responses (indicated in side panel) produced in cells treated concomitantly with that ligand and IBMX for 10 minutes and omitting the wash-out phase. […] Data are means (±s.e.m) of four experiments, each performed in triplicate.
The capacity of the ligands to produce sustained (or delayed) cAMP signaling responses was further examined in HKRK-B64 cells, which express the hPTHR at a more physiological level than do HKRK-B7 cells (90,000 per cell vs. 950,000/cell).
The capacities of ligands to produce a delayed cAMP response in cells after a brief exposure to the ligand was assessed as follows. The cells in 24-well plates were rinsed in binding buffer (50 mM Tris-HCl, pH 7.7, 100 mM NaCl, 5 mM KCl, 2 mM CaCl2, 5% heat-inactivated horse serum, 0.5% heat-inactivated fetal bovine serum) and then incubated in binding buffer with or without a peptide ligand (1×10^−7 or 3×10^−7 M) for 10 minutes at room temperature; the buffer was then removed, the cells were washed three times with binding buffer, incubated further in binding buffer for varying times (1 to 120 minutes); the buffer was then replaced by binding buffer containing IBMX (2 mM), and after an additional five minute incubation, the intracellular cAMP was quantified.

[3] = system: PTHR-CFPIC3/YFPCT (PTHR-cam); test: FRET analysis of ligand binding/receptor activation in HEK-293 cells; assay type: cell-based, human
[4] = Plasma cAMP in mice after subcutaneous injection; assay type: in vivo
Description: FIGS. 9A-9D are graphs showing in vivo plasma cAMP levels in mice treated with PTH analogs. Wild-type mice were injected subcutaneously with vehicle (0.9% NaCl/0.05% Tween-20), or vehicle containing a PTH peptide at a dose-level of 10 to 1,000 nmol of peptide per kg of body weight, and at indicated times after injection, blood was withdrawn from the tail vein, and the amount of cAMP in the resulting plasma was quantified by radioimmuno assay. Each curve corresponds to a peptide at a defined concentration, as indicated in the graph keys. The plasma cAMP concentrations are plotted as picomole per μl plasma.
(§1) Wild-type mice were injected subcutaneously with vehicle (0.9% NaCl/0.05% Tween-20), or vehicle containing a PTH peptide so as to achieve a concentration ranging from 10 to 1000 nmol/kg of body weight. At the indicated times after injection, blood was withdrawn from the tail vein, and the amount of cAMP in the resulting plasma was quantified by radioimmuno assay (FIGS. 9A-9D).
as §1, with “at” for “so as to achieve”, “dose level of” for “concentration ranging from”, “At” for “At the”, “assay. Ionized calcium in serum was measured as above and phosphate was measured by a U.V. spectroscopic kit assay.” for “assay (FIGS. 9A-9D).”

[5] = molecular target: T4, ROS 17/2.8 cells (endogenous rat PTHR) (Rattus norvegicus, UniProt P25961); test: Acute cAMP response in ROS 17/2.8 rat osteoblastic cells; assay type: cell-based; conditions: 10^−7 M, hPTH(1-28) 10^−6 M, basal 3.7±0.4
T4 construct: the rat osteoblastic cell line ROS17/2.8, which endogenously expresses the rat PTHR; endogenous in cells; host or cells: ROS 17/2.8 rat osteosarcoma cells (membranes or intact cells)
T4 sequence (P25961 27-591): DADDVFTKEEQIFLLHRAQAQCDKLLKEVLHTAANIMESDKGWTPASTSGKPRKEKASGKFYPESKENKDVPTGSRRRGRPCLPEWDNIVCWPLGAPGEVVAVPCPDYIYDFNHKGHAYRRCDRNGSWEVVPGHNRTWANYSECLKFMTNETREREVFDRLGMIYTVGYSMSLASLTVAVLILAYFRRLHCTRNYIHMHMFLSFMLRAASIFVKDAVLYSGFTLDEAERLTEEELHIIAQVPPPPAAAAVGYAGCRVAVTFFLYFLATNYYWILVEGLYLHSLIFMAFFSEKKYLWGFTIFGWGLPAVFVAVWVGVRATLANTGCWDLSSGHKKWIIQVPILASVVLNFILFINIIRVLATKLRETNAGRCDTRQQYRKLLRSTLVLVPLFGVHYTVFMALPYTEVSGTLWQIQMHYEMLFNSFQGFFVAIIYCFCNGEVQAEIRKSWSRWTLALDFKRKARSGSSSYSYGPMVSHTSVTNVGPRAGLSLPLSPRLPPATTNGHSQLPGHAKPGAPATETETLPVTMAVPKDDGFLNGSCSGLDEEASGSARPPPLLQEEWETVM
Description: The resulting intracellular cAMP formed was quantified by radioimmuno assay. […] Curve fits were obtained by non-linear regression analysis.

[6] = molecular target: T4, ROS 17/2.8 cells (endogenous rat PTHR); test: Delayed cAMP response in ROS 17/2.8 cells; assay type: cell-based
Description: The analogs used were [E^19],Mc-hPTH(1-34)OH (SEQ ID NO:21) and [A^23,E^19],Mc-hPTH(1-34)OH (SEQ ID NO:28) (Mc=Ala^1,3,12,Gln^10,Arg^11,Trp^14, Arg^19).
The data in FIG. 21B are expressed as a percent of the maximum response observed for each ligand, determined by incubating the cells with ligand in the presence of IBMX for 10 minutes (no ligand wash-out). These values were 67±6; 68±3; and 71±1 pmole/well, respectively. The basal (vehicle) cAMP value was 3.7±0.4 pmole/well.
Following treatment of cells with a ligand, the intracellular cAMP levels were measured by radioimmuno assay, as described (Shimizu et al., J. Biol. Chem. 276:49003-49012 (2001)). The capacities of ligands to produce a delayed cAMP response in cells after a brief exposure to the ligand was assessed as follows. […]

[7] = Calcemic action in normal rats (blood ionized calcium); assay type: in vivo; conditions: normal rats, i.v.
Description: Binding to the rat PTHR was also measured in vitro.
Concentration of peptides in stock solution were adjusted by dilution with 25 mmol/L phosphate-citrate buffer/100 mmol/L NaCl/0.05% Tween 80 (pH. 5.0) (PC-buffer). All peptides were allowed to stand on ice immediately before administration.
Female SD-IGS rat at 8 weeks of age (Charles River Japan, Inc.) were measured for their body weight. Blood was collected by tail vein into heparinized capillary tubes and measured for baseline levels of blood ionized calcium and pH using Ca^++/pH analyzer (Model 634/Bayer Medical Ltd.) to give the corrected level of ionized calcium at pH 7.4 for each sample. Rats received intravenous administration of each peptides at a dose of 1 ml/kg. Peptides were administered to groups of 6 rats each respectively. At 1, 2, 4, or 6 hours after administration, blood was collected by tail vein to monitor the time course of corrected blood ionized calcium levels. The time course of changes in corrected ionized calcium levels, compared to vehicle, and are expressed as means+/−standard error.

Molecule: CCCC[C@H](NC(=O)[C@H](CC(C)C)NC(=O)[C@H](CCC(N)=O)NC(=O)[C@@H](NC(=O)[C@H](CCC(=O)O)NC(=O)C(C)(C)NC(=O)[C@@H](NC(=O)C(C)(C)N)C(C)C)[C@@H](C)CC)C(=O)N[C@@H](Cc1c[nH]cn1)C(=O)N[C@@H](CCC(N)=O)C(=O)N[C@@H](CCCCNC(=N)N)C(=O)N[C@@H](C)C(=O)N[C@@H](CCCCN)C(=O)N[C@@H](Cc1c[nH]c2ccccc12)C(=O)N[C@@H](Cc1ccc(O)cc1)C(N)=O [[Aib^1,3,M]rPTH(1-15)NH2, [Aib^1,3,Nle^8,Gln^10,homoarginine^11,Ala^12,Trp^14,Tyr^15]rPTH(1-15)NH2, reference compound] (H-[Aib]V[Aib]EIQL[Nle]HQ[hArg]AKWY-NH2; N-terminus assumed)
- R0:RG ([1]; Table 5, fold weaker affinity for R0 than RG): 1,397
- IC50 [2]: 0.74 ± 0.18 nM
- Emax (hPTHR): 23%
- FRET signal after exchange to ligand-free buffer, in words [3]: began to decay immediately upon exchange of the buffer to a ligand-free one

Molecule: CC[C@H](C)[C@H](NC(=O)[C@H](CCC(=O)O)NC(=O)[C@H](CO)NC(=O)[C@@H](NC(=O)[C@@H](N)CO)C(C)C)C(=O)N[C@@H](CCC(N)=O)C(=O)N[C@@H](CC(C)C)C(=O)N[C@@H](CCSC)C(=O)N[C@@H](Cc1c[nH]cn1)C(=O)N[C@@H](CC(N)=O)C(=O)N[C@@H](CC(C)C)C(=O)NCC(=O)N[C@@H](CCCCN)C(=O)N[C@@H](Cc1c[nH]cn1)C(=O)N[C@@H](CC(C)C)C(=O)N[C@@H](CC(N)=O)C(=O)N[C@@H](CO)C(=O)N[C@@H](CCSC)C(=O)N[C@@H](CCC(=O)O)C(=O)N[C@@H](CCCNC(=N)N)C(=O)N[C@H](C(=O)N[C@@H](CCC(=O)O)C(=O)N[C@@H](Cc1c[nH]c2ccccc12)C(=O)N[C@@H](CC(C)C)C(=O)N[C@@H](CCCNC(=N)N)C(=O)N[C@@H](CCCCN)C(=O)N[C@@H](CCCCN)C(=O)N[C@@H](CC(C)C)C(N)=O)C(C)C [hPTH(1-28)NH2] (H-SVSEIQLMHNLGKHLNSMERVEWLRKKL-NH2; N-terminus assumed)
- dose producing comparable increase in plasma cAMP [4]: 1,000 nmol/kg
- maximum cAMP response (ligand with IBMX 10 minutes, no wash-out) [5]: 68±3 pmole/well

Molecule: CC[C@H](C)[C@H](NC(=O)[C@H](CCC(=O)O)NC(=O)[C@H](CO)NC(=O)[C@@H](NC(=O)[C@@H](N)CO)C(C)C)C(=O)N[C@@H](CCC(N)=O)C(=O)N[C@@H](CC(C)C)C(=O)N[C@@H](CCSC)C(=O)N[C@@H](Cc1c[nH]cn1)C(=O)N[C@@H](CC(N)=O)C(=O)N[C@@H](CC(C)C)C(=O)NCC(=O)N[C@@H](CCCCN)C(=O)N[C@@H](Cc1c[nH]cn1)C(=O)N[C@@H](CC(C)C)C(=O)N[C@@H](CC(N)=O)C(=O)N[C@@H](CO)C(=O)N[C@@H](CCSC)C(=O)N[C@@H](CCC(=O)O)C(=O)N[C@@H](CCCNC(=N)N)C(=O)N[C@H](C(=O)N[C@@H](CCC(=O)O)C(=O)N[C@@H](Cc1c[nH]c2ccccc12)C(=O)N[C@@H](CC(C)C)C(=O)N[C@@H](CCCNC(=N)N)C(=O)N[C@@H](CCCCN)C(=O)N[C@@H](CCCCN)C(=O)N[C@@H](CC(C)C)C(=O)N[C@@H](CCC(N)=O)C(=O)N[C@@H](CC(=O)O)C(=O)N[C@H](C(=O)N[C@@H](Cc1c[nH]cn1)C(=O)N[C@@H](CC(N)=O)C(=O)N[C@@H](Cc1ccccc1)C(N)=O)C(C)C)C(C)C [hPTH(1-34)NH2]
- dose producing comparable increase in plasma cAMP [4]: 50 nmol/kg
- maximum cAMP response (ligand with IBMX 10 minutes, no wash-out) [5]: 67±6 pmole/well

Molecule: AVAEIQLMHQRAKWLNSMERVEALRKKLQDVHNF [[A^23,E^19],Mc-hPTH(1-34)OH]
- fold reduction of binding affinity for R^0 by Trp^23→Ala substitution ([1]; versus [E^19,Mc]PTH(1-34)): 10 fold
- duration of cAMP signaling, in words [6]: reduced duration of cAMP signaling in cells
- calcemic action (blood ionized calcium), in words [7]: reduced the hypercalcemic effect
